From patent US9932381B2, “Exendin-4 derivatives as selective glucagon receptor agonists” (priority 2014, dated 2018)
Non-standard residues stand in square brackets, D forms with d. Residues, ends and D or L forms follow the SMILES beside them. Ala(4-thiazolyl) = N[C@@H](Cc1cscn1)C(=O)O; Nle = CCCC[C@H](N)C(=O)O

Columns and labels:
[1] = target: T1, human GLP-1 receptor (hGLP-1 R) (Homo sapiens, UniProt P43220); test: cAMP response (HTRF) of HEK-293 cells stably expressing human GLP-1 receptor; assay type: cell-based
T1 construct: expressed in transfected cells; host or cells: HEK-293
T1 sequence (P43220 24-463): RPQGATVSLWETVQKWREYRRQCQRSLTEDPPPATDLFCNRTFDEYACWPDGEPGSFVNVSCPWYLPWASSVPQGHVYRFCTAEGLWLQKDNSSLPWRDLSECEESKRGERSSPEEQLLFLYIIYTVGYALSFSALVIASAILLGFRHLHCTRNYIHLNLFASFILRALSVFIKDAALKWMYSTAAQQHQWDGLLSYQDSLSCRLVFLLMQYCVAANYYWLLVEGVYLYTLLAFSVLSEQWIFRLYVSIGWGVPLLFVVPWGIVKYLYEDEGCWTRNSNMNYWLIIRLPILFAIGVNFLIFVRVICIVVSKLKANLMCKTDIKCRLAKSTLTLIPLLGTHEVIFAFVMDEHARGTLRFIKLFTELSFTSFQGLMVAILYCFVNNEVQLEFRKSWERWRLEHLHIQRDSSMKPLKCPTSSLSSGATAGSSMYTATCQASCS
Description: cAMP content of cells was determined using a kit from Cisbio Corp. (cat. no. 62AM4PEC) based on HTRF (Homogenous Time Resolved Fluorescence). For preparation, cells were split into T175 culture flasks and grown overnight to near confluency in medium (DMEM/10% FBS). Medium was then removed and cells washed with PBS lacking calcium and magnesium, followed by proteinase treatment with accutase (Sigma-Aldrich cat. no. A6964). Detached cells were washed and resuspended in assay buffer (1×HBSS; 20 mM HEPES, 0.1% BSA, 2 mM IBMX) and cellular density determined. They were then diluted to 400000 cells/ml and 25 μl-aliquots dispensed into the wells of 96-well plates. For measurement, 25 μl of test compound in assay buffer was added to the wells, followed by incubation for 30 minutes at room temperature. After addition of HTRF reagents diluted in lysis buffer (kit components), the plates were incubated for 1 hr, followed by measurement of the fluorescence ratio at 665/620 nm. In vitro potency of agonists was quantified by determining the concentrations that caused 50% activation of maximal response (EC50).

[2] = target: T2, human glucagon receptor (hGLUC R) (Homo sapiens, UniProt P47871); test: cAMP response (HTRF) of HEK-293 cells stably expressing human glucagon receptor; assay type: cell-based; conditions: Table 4; read-out: EC50 hGLUC R
T2 construct: expressed in transfected cells; host or cells: HEK-293
T2 sequence (P47871 26-477): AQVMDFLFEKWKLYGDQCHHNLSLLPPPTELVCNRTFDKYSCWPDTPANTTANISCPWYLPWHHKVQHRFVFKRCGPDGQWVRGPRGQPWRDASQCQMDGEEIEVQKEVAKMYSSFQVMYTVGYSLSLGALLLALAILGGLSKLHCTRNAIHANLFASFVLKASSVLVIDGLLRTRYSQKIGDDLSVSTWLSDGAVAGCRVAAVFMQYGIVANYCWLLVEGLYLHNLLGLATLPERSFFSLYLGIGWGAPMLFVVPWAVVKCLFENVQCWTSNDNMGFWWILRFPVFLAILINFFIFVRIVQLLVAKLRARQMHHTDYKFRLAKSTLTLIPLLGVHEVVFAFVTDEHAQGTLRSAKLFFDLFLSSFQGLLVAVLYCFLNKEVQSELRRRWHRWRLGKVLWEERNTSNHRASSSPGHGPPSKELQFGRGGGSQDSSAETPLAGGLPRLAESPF
In short: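 Cells grown overnight in DMEM/10% FBS, detached with accutase, resuspended in HBSS with 20 mM HEPES, 0.1% BSA and 2 mM IBMX at 400000 cells/ml. Test compound added and incubated 30 minutes at room temperature; cellular cAMP then measured by HTRF.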

[3] = Solubility testing of exendin-4 derivatives (HPLC-UV of supernatant); assay type: physicochemical; conditions: pH 7.4
Description: Prior to the testing of solubility and stability of a peptide batch, its content was determined. Therefore, two parameters were investigated, its purity (HPLC-UV) and the amount of salt load of the batch (ion chromatography).
HPLC-UV was performed after 2 h of gentle agitation from the supernatant, which was obtained by 20 min of centrifugation at 4000 rpm.

hepatic glycogenolysis = test: Blood glucose profile in anesthetized rats; assay type: in vivo, male Wistar rats; conditions: for effect on blood glucose: 10 to 30 μg/kg s.c.
Description: The method aimed to study a test compound on the process of hepatic glycogenolysis. The rats had free access to food until the start of the experiment. […] The effect of GCG-mimetic on hepatic glycogenolysis and the subsequent hyperglycemic peak in the blood was compared to the effect obtained with a subcutaneous bolus injection of GCG at a dose of 30 μg/kg.
Rats were anaesthetized with an intraperitoneal injection of pentobarbital sodium (60 mg/kg) and ketamine (10 mg/kg) and tracheotomized. Anesthesia was maintained for up to 5 hours by subcutaneous infusion of pentobarbital sodium (adjusted to the anesthetic depth of the individual animal; about 24 mg/kg/h). Body temperature was monitored with a rectal probe thermometer, and temperature was maintained at 37° C. by means of a heated surgical table. Blood samples for glucose analysis (10 μl) were obtained from the tip of the tail every 15 minutes. The rats were allowed to stabilize their blood glucose levels after surgery for up to 2 hours. Then, GCG as reference compound, or the test compound were administered subcutaneously. For GCG a dose of 30 μg/kg was used to induce hepatic glycogenolysis.

blood glucose = test: Blood glucose profile in normoglycemic Beagle dogs; assay type: in vivo, male normoglycemic Beagle dogs; conditions: for effect on blood glucose relative to human glucagon: s.c. injection; for induction of a blood glucose response, SEQ. ID 5 vs. SEQ. ID 6: normoglycemic dogs
Description: Male normoglycemic Beagle dogs were fasted overnight before and during the entire experiment. The animals were randomized to groups of n=6 per group. […] The injection solutions were prepared freshly prior to the experiment. The test compound was administered as a single injection via three different routes (s.c., i.m. and i.v.) at doses of 1-100 μg/kg. […] Blood glucose was determined enzymatically (hexokinase method) from whole blood, insulin was analyzed from K-EDTA plasma with a dog-specific ELISA assay.

Row | EC50 ([1]; Table 4) | EC50 ([1]; Table 5, Tza vs. His in position 1) | EC50 [2] | solubility at 2 h [3] | SMILES | blood glucose excursion compared to 30 μg/kg GCG (hepatic glycogenolysis; 10 μg/kg s.c.) | time of blood glucose peak after injection (hepatic glycogenolysis; 10 μg/kg s.c.) | time of blood glucose peak after injection (hepatic glycogenolysis; 30 μg/kg s.c.) | effect on blood glucose (hepatic glycogenolysis) | effect on blood glucose relative to human glucagon (blood glucose; dog) | induction of a blood glucose response, SEQ. ID 5 vs. SEQ. ID 6 (blood glucose; s.c.) | blood glucose excursion compared to 30 μg/kg GCG (hepatic glycogenolysis; 20 μg/kg s.c.) | time of blood glucose peak after injection (hepatic glycogenolysis; 20 μg/kg s.c.) | peak increase of blood glucose (blood glucose; 10 μg/kg s.c., dog) | subcutaneous versus intramuscular injection (blood glucose; dog) | glucose excursion at higher doses (blood glucose; doses beyond 10 μg/kg s.c., dog) | duration of the glucose response (blood glucose; s.c., dog, versus human glucagon) | activity by route of administration (blood glucose; subcutaneous, intramuscular and intravenous injection, dog)
1 | 34.5 nM | 19.7 nM | 0.0022 nM | > 10000 µg/mL | CC[C@H](C)[C@H](NC(=O)[C@H](Cc1ccccc1)NC(=O)[C@H](CC(=O)O)NC(=O)[C@H](CCC(N)=O)NC(=O)[C@H](C)NC(=O)[C@H](CCCNC(=N)N)NC(=O)[C@H](CCCNC(=N)N)NC(=O)[C@H](CO)NC(=O)[C@H](CCC(=O)O)NC(=O)[C@H](CC(C)C)NC(=O)[C@H](CCC(N)=O)NC(=O)[C@H](CCCCN)NC(=O)[C@H](CO)NC(=O)[C@H](CC(C)C)NC(=O)[C@H](CC(=O)O)NC(=O)[C@H](CO)NC(=O)[C@@H](NC(=O)[C@H](Cc1ccccc1)NC(=O)[C@@H](NC(=O)CNC(=O)[C@H](CCC(N)=O)NC(=O)[C@H](CO)NC(=O)[C@@H](N)Cc1cscn1)[C@@H](C)O)[C@@H](C)O)C(=O)N[C@@H](CCC(=O)O)C(=O)N[C@@H](Cc1c[nH]c2ccccc12)C(=O)N[C@@H](CC(C)C)C(=O)N[C@@H](CC(C)C)C(=O)N[C@@H](C)C(=O)N[C@H](C(=O)NCC(=O)N1CCC[C@H]1C(=O)N[C@@H](CCC(=O)O)C(=O)N[C@@H](CO)C(=O)NCC(=O)N[C@@H](C)C(=O)N1CCC[C@H]1C(=O)N1CCC[C@H]1C(=O)N1CCC[C@H]1C(=O)N[C@@H](CO)C(=O)O)[C@@H](C)O [SEQ ID NO 15, Tza-SQGTFTSDLSKQLESRRAQDFIEWLLATGPESGAPPPS-OH] (H-[Ala(4-thiazolyl)]SQGTFTSDLSKQLESRRAQDFIEWLLATGPESGAPPPS-OH) | – | – | – | – | – | – | – | – | – | – | – | – | –
2 | 9.3 nM | – | – | > 10000 µg/mL | CC[C@H](C)[C@H](NC(=O)[C@H](Cc1ccccc1)NC(=O)[C@H](CCC(=O)O)NC(=O)[C@H](CCC(N)=O)NC(=O)[C@H](C)NC(=O)[C@H](CCCNC(=N)N)NC(=O)[C@H](CCCNC(=N)N)NC(=O)[C@H](CO)NC(=O)[C@H](CCC(=O)O)NC(=O)[C@H](CC(C)C)NC(=O)[C@H](CCC(N)=O)NC(=O)[C@H](CCCCN)NC(=O)[C@H](CO)NC(=O)[C@H](Cc1ccc(O)cc1)NC(=O)[C@H](CC(=O)O)NC(=O)[C@H](CO)NC(=O)[C@@H](NC(=O)[C@H](Cc1ccccc1)NC(=O)[C@@H](NC(=O)CNC(=O)[C@H](CCC(N)=O)NC(=O)[C@H](CO)NC(=O)[C@@H](N)Cc1cscn1)[C@@H](C)O)[C@@H](C)O)C(=O)N[C@@H](CCC(=O)O)C(=O)N[C@@H](Cc1c[nH]c2ccccc12)C(=O)N[C@@H](CC(C)C)C(=O)N[C@@H](CC(C)C)C(=O)N[C@@H](C)C(=O)N[C@H](C(=O)NCC(=O)N1CCC[C@H]1C(=O)N[C@@H](CCC(=O)O)C(=O)N[C@@H](CO)C(=O)NCC(=O)N[C@@H](C)C(=O)N1CCC[C@H]1C(=O)N1CCC[C@H]1C(=O)N1CCC[C@H]1C(=O)N[C@@H](CO)C(=O)O)[C@@H](C)O [SEQ ID NO 6, Tza-SQGTFTSDYSKQLESRRAQEFIEWLLATGPESGAPPPS-OH] | more powerful blood glucose excursion | 30 min | 60 min | dose-dependent increase of blood glucose | mimicked the effect of human glucagon on blood glucose | similarly active | – | – | – | – | – | – | –
3 | 44.3 nM | – | 0.0018 nM | > 10000 µg/mL | CCCC[C@H](NC(=O)[C@H](CCC(N)=O)NC(=O)[C@H](CCCCN)NC(=O)[C@H](CO)NC(=O)[C@H](CC(C)C)NC(=O)[C@H](CC(=O)O)NC(=O)[C@H](CO)NC(=O)[C@@H](NC(=O)[C@H](Cc1ccccc1)NC(=O)[C@@H](NC(=O)CNC(=O)[C@H](CCC(N)=O)NC(=O)[C@H](CO)NC(=O)[C@@H](N)Cc1cscn1)[C@@H](C)O)[C@@H](C)O)C(=O)N[C@@H](CCC(=O)O)C(=O)N[C@@H](CO)C(=O)N[C@@H](CCCNC(=N)N)C(=O)N[C@@H](CCCNC(=N)N)C(=O)N[C@@H](C)C(=O)N[C@@H](CCC(N)=O)C(=O)N[C@@H](CC(=O)O)C(=O)N[C@@H](Cc1ccccc1)C(=O)N[C@H](C(=O)N[C@@H](CCC(=O)O)C(=O)N[C@@H](Cc1c[nH]c2ccccc12)C(=O)N[C@@H](CC(C)C)C(=O)N[C@@H](CC(C)C)C(=O)N[C@@H](C)C(=O)N[C@H](C(=O)NCC(=O)N1CCC[C@H]1C(=O)N[C@@H](CCC(=O)O)C(=O)N[C@@H](CO)C(=O)NCC(=O)N[C@@H](C)C(=O)N1CCC[C@H]1C(=O)N1CCC[C@H]1C(=O)N1CCC[C@H]1C(=O)N[C@@H](CO)C(=O)O)[C@@H](C)O)[C@@H](C)CC [SEQ ID NO 3, Tza-S-Q-G-T-F-T-S-D-L-S-K-Q-Nle-ESRRAQDFIEWLLATGPESGAPPPS-OH] (H-[Ala(4-thiazolyl)]SQGTFTSDLSKQ[Nle]ESRRAQDFIEWLLATGPESGAPPPS-OH) | – | – | – | – | – | – | – | – | – | – | – | – | –
4 | – | – | 0.0022 nM | > 10000 µg/mL | CC[C@H](C)[C@H](NC(=O)[C@H](Cc1ccccc1)NC(=O)[C@H](CCC(=O)O)NC(=O)[C@H](CCC(N)=O)NC(=O)[C@H](C)NC(=O)[C@H](CCCNC(=N)N)NC(=O)[C@H](CCCNC(=N)N)NC(=O)[C@H](CO)NC(=O)[C@H](CCC(=O)O)NC(=O)[C@H](CC(C)C)NC(=O)[C@H](CCC(N)=O)NC(=O)[C@H](CCCCN)NC(=O)[C@H](CO)NC(=O)[C@@H](NC(=O)[C@H](CC(=O)O)NC(=O)[C@H](CO)NC(=O)[C@@H](NC(=O)[C@H](Cc1ccccc1)NC(=O)[C@@H](NC(=O)CNC(=O)[C@H](CCC(N)=O)NC(=O)[C@H](CO)NC(=O)[C@@H](N)Cc1cscn1)[C@@H](C)O)[C@@H](C)O)C(C)C)C(=O)N[C@@H](CCC(=O)O)C(=O)N[C@@H](Cc1c[nH]c2ccccc12)C(=O)N[C@@H](CC(C)C)C(=O)N[C@@H](CC(C)C)C(=O)N[C@@H](C)C(=O)NCC(=O)NCC(=O)N1CCC[C@H]1C(=O)N[C@@H](CCC(=O)O)C(=O)N[C@@H](CO)C(=O)NCC(=O)N[C@@H](C)C(=O)N1CCC[C@H]1C(=O)N1CCC[C@H]1C(=O)N1CCC[C@H]1C(=O)N[C@@H](CO)C(=O)O [SEQ ID NO 9, Tza-SQGTFTSDVSKQLESRRAQEFIEWLLAGGPESGAPPPS-OH] (H-[Ala(4-thiazolyl)]SQGTFTSDVSKQLESRRAQEFIEWLLAGGPESGAPPPS-OH) | – | – | – | – | – | – | – | – | – | – | – | – | –
5 | 2.19 nM | – | – | > 10000 µg/mL | CC[C@H](C)[C@H](NC(=O)[C@H](Cc1ccccc1)NC(=O)[C@H](CCC(=O)O)NC(=O)[C@H](CCC(N)=O)NC(=O)[C@H](C)NC(=O)[C@H](CCCNC(=N)N)NC(=O)[C@H](CCCNC(=N)N)NC(=O)[C@H](CO)NC(=O)[C@H](CCC(=O)O)NC(=O)[C@H](CC(C)C)NC(=O)[C@H](CCC(N)=O)NC(=O)[C@H](CCCCN)NC(=O)[C@H](CO)NC(=O)[C@H](Cc1ccc(O)cc1)NC(=O)[C@H](CC(=O)O)NC(=O)[C@H](CO)NC(=O)[C@@H](NC(=O)[C@H](Cc1ccccc1)NC(=O)[C@@H](NC(=O)CNC(=O)[C@H](CCC(N)=O)NC(=O)[C@H](CO)NC(=O)[C@@H](N)Cc1cscn1)[C@@H](C)O)[C@@H](C)O)C(=O)N[C@@H](CCC(=O)O)C(=O)N[C@@H](Cc1c[nH]c2ccccc12)C(=O)N[C@@H](CC(C)C)C(=O)N[C@@H](CC(C)C)C(=O)N[C@@H](C)C(=O)NCC(=O)NCC(=O)N1CCC[C@H]1C(=O)N[C@@H](CCC(=O)O)C(=O)N[C@@H](CO)C(=O)NCC(=O)N[C@@H](C)C(=O)N1CCC[C@H]1C(=O)N1CCC[C@H]1C(=O)N1CCC[C@H]1C(=O)N[C@@H](CO)C(=O)O [SEQ ID NO 5, Tza-SQGTFTSDYSKQLESRRAQEFIEWLLAGGPESGAPPPS-OH] | – | 30 min | 90 min | dose-dependent increase of blood glucose | mimicked the effect of human glucagon on blood glucose | similarly active | nearly comparable shape of blood glucose excursion | 45 min | 3.5 to 4 mmol/L | no difference in activity and blood glucose time-action profile | did no longer result in higher glucose excursion | slightly longer | active through all parenteral routes
